Laboratory results taken from patent publication US20260152501A1, “CYCLIN MODULATOR” (EUBULUS BIOTHERAPEUTICS (HONG KONG) LIMITED, priority 2022, published 2026).

Columns and labels:
Format in all cases: cell-based
Colo-205 cells = assay: Cell proliferation experiment, Colo-205 cells; conditions: Homo sapiens, COLO 205, Colo-205 cells, Cell Titer-Glo; read-out: Cell antiproliferation data Colo-205
Description: (§1) Reagents: RPMI-1640 medium, McCoy's 5A medium, IMDM medium, MEM medium, L-15 medium, fetal bovine serum, Penicillin-Streptomycin double antibody, trypsin, etc., 2-mercaptoethanol, NEAA, pyruvate, etc.
(§2) The test cells were cultured in conventional ways, and the cells should be passed for at least 2 generations before plating.
(§3) 25 μL of 1000 HT-29, N87, SKOV3, Colo-205 and MDA-MB-231 cells were inoculated in a 384-well plate with black wall and transparent bottom, 25 μL of different concentrations of compounds were added, and the cells were cultured overnight under condition of 37° C. and 5% CO2.
(§4) 25 μL of 1500 H82 and H69 cells were inoculated in a 384-well plate with black wall and transparent bottom, 25 μL of different concentrations of compounds were added, and the cells were cultured for 72 hours under condition of 37° C. and 5% CO2. The 384-well plate was equilibrated at room temperature, 25 μL of Cell Titer-Glo® reagent was added to each well, and the cells were lysed by shaking on a horizontal shaking shaker for 2 minutes, incubated at room temperature for 10 minutes to stabilize the luminescent signal, and then the chemiluminescent signal was detected using Envision.
(§5) All cells were subjected to IC50 test for corresponding samples.
(§6) The fluorescence intensity of each well was detected using the Alarm blue method, and EC50 was calculated.
(§7) IC50 was calculated according to the following formula:
(§8) [formula] • wherein, Min, Max and Slope represent the minimum, maximum and slope respectively.

HT-29 cells = assay: Cell proliferation experiment, HT-29 cells; conditions: Homo sapiens, Cell Titer-Glo, read-out: Cell antiproliferation data HT-29
Description: as §1, §2, §3, §4, §5, §6, §7, §8

H69 cells = assay: Cell proliferation experiment, H69 cells; conditions: Homo sapiens, NCI-H69, 72 h, cultured for 72 hours, Cell Titer-Glo, read-out: Cell antiproliferation data H69
Description: as §1, §2, §4
(§9) All cells were subjected to IC50 test for corresponding samples. […]
as §7, §8

SKOV3 cells = assay: Cell proliferation experiment, SKOV3 cells; conditions: Homo sapiens, SK-OV-3, SKOV3 cells, Cell Titer-Glo; read-out: Cell antiproliferation data SKOV3
Description: as §1, §2, §3, §4, §5, §6, §7, §8

MDA-MB-231 cells = assay: Cell proliferation experiment, MDA-MB-231 cells; conditions: Homo sapiens, Cell Titer-Glo, read-out: Cell antiproliferation data MDA-MB-231
Description: as §1, §2, §3, §4, §5, §6, §7, §8

H82 cells = assay: Cell proliferation experiment, H82 cells; conditions: Homo sapiens, NCI-H82, cultured for 72 hours, Cell Titer-Glo, read-out: Cell antiproliferation data H82
Description: as §1, §2, §4, §9, §7, §8

N87 cells = assay: Cell proliferation experiment, N87 cells; conditions: Cell Titer-Glo, read-out: Cell antiproliferation data N87
Description: as §1, §2, §3, §4, §5, §6, §7, §8

IC50 (Colo-205 cells) [nM]	IC50 (HT-29 cells) [nM]	IC50 (SKOV3 cells) [nM]	IC50 (MDA-MB-231 cells) [nM]	SMILES	IC50 (H69 cells) [nM]	IC50 (H82 cells) [nM]	IC50 (N87 cells) [nM]
≤ 100	≤ 100	100 to 300	≤ 100	CC(C)n1cnc2c(NCc3ccc(-c4ccccc4)cc3)nc(N3CCC[C@H](N)C3)nc21 [UB-012, (S)-N-([1,1′-biphenyl]-4-ylmethyl)-2-(3-aminopiperidin-1-yl)-9-isopropyl-9H-purin-6-amine]	100 to 300	≤ 100	≤ 100
≤ 100	≤ 100	100 to 300	≤ 100	CC(C)n1cnc2c(NCc3ccc(-c4ccccc4)cc3)nc(N3CCC[C@@H](N)C3)nc21 [UB-013, (R)-N-([1,1′-biphenyl]-4-ylmethyl)-2-(3-aminopiperidin-1-yl)-9-isopropyl-9H-purin-6-amine]	100 to 300	≤ 100	≤ 100
> 300	> 300	> 300	> 300	CC(C)n1cnc2c(NCc3ccc(-c4ccccc4)cc3)nc(N3CCCCC3)nc21 [UB-008, N-([1,1′-biphenyl]-4-ylmethyl)-9-isopropyl-2-(Piperidin-1-yl)-9H-purin-6-amine]	> 300	> 300	> 300

The next lines start with the compound.

SMILES	IC50 (Colo-205 cells) [nM]	IC50 (HT-29 cells) [nM]	IC50 (SKOV3 cells) [nM]	IC50 (MDA-MB-231 cells) [nM]	IC50 (H69 cells) [nM]	IC50 (H82 cells) [nM]	IC50 (N87 cells) [nM]
CC(C)n1cnc2c(NCc3ccc(-c4ccccc4)cc3)nc(N[C@H]3CCCNC3)nc21 [UB-015, (S)-N6-([1,1′-biphenyl]-4-ylmethyl)-9-isopropyl-N2-(Piperidin-3-yl)-9H-purin-2,6-diamine]	≤ 100	≤ 100	100 to 300	≤ 100	100 to 300	≤ 100	≤ 100
CC(C)n1cnc2c(NCc3ccc(-c4ccccc4)cc3)nc(N3CCNCC3)nc21 [UB-010, N-([1,1′-biphenyl]-4-ylmethyl)-9-isopropyl-2-(piperazin-1-yl)-9H-purin-6-amine]	≤ 100	≤ 100	≤ 100	≤ 100	100 to 300	≤ 100	≤ 100
